According to patent US7354912B2, “Unique compositions of zwitterionic phospholipids and bisphosphonates and use of the compositions as bisphosphate delivery systems with reduced GI toxicity” (Board of Reagents, University of Texas System, priority 2000, dated 2008):
Marks after values point to notes of the source that are not given here.

Experiments:
[1] = tested on: mucosae of the gastric body and antrum; settings: increasing doses over a 4 week period in rats; macroscopic and histological; cited from earlier work
gastric mucosa [2] = assay: acute bisphosphonate/indomethacin gastric injury model of Blank et al. (gastric lesion score, gastric bleeding); format: in vivo, rat; settings: for order of gastrotoxicity (FIG. 4) / Gastric Lesion Score (lesioned area, mm^2): rats; for order of gastrotoxicity (FIG. 4): comparison of three bisphosphonates; for Gastric Lesion Score (lesioned area, mm^2): Indo 40 mg/kg, pamidronate 300 mg/kg, PC-pamidronate 1:1 weight ratio, n = 4-5 rats/group
Text: (§1) The experiments investigated the effects of different bisphosphonates on the surface hydrophobicity and phospholipid concentration of the antral mucosa, using the animal model of Blank et. al. (Blank M A, Ems B L, Gibson G W, Myers W R, Berman S K, Phipps R J, Smith P N, Dig Dis Sci, 42, 281-288 (1997)), and compared the effects of these surface changes to the gastric toxicity of these drugs.
Looking at FIG. 2, an antrum lesion score is plotted against time.
The model and the ability for phospholipids to inhibit bisphosphonate GI toxicity was investigated in pilot preclinical studies using the rodent model of Blank et. al. (Blank M A, Ems B L, Gibson G W, Myers W R, Berman S K, Phipps R J, Smith P N, Dig Dis Sci, 42, 281-288 (1997)), where the bisphosphonate test drug was administered simultaneously with indomethacin.
60 mg of Phospholipon 90G (90-93% pure PC) was dissolved in chloroform in a tube. […] The organic solvent was removed under nitrogen and resulting PC material was left under vacuum overnight to form a PC film in the tube. […] The solution was then added to the dried PC film in the tube. The mixture was sonicated in a both type sonicator at room temperature for 5 min., prior to administration to fasted rats.
20 mg of dipalmitoyl PC (DPPC) and Phospholipon 90 G were dissolved in chloroform in separate tubes, and dried as described in Example 1.
60 mg and 240 mg of Phospholipon 90G were dissolved in chloroform and dried as described in Example 1 in separate tubes.

gastric mucosa [3] = assay: surface hydrophobicity and phospholipid (PC) concentration of the antral/gastric mucosa
Text: as §1

gastric mucosa [4] = assay: histological studies of gastric mucosa; settings: rat, in vivo
[5] = healthy subjects, up to 2 weeks, 40 mg or 10 mg; cited from earlier work
[6] = tested on: aspirin-induced gastric erosions; settings: 10 mg and 40 mg doses; cited from earlier work
[7] = tested on: experimentally induced gastric ulcers; settings: rats; cited from earlier work
gastric mucosa [8] = settings: rats, intragastric high doses, with indomethacin; cited from earlier work

Compound: CC(O)(P(=O)(O)O)P(=O)(O)O [etidronate, 1-hydroxyethylidene-1,1-bisphosphonic acid]
- injurious effect on mucosae of the gastric body and antrum [1]: dose-dependent injurious effect

Compound: O=P(O)(O)C(O)(Cc1cccnc1)P(=O)(O)O [risedronate, I-hydroxy-2-(3-pyridyl) ethylidene-1,(3-pyridyl) ethylidene-1,1-bisphosphonic acid]
- order of gastrotoxicity (FIG. 4) (gastric mucosa [2]): pamidronate>>alendronate>risedronate
- order of ability to attenuate the stomach's hydrophobic phospholipid barrier property (FIG. 5) (gastric mucosa [3]; same order as gastrotoxicity maintained): pamidronate>>alendronate>risedronate
- surface injury to the gastric mucosa (histology) (gastric mucosa [4]): induced some surface injury
- injurious effect on mucosae of the gastric body and antrum [1]: dose-dependent injurious effect

Compound: NCCCC(O)(P(=O)(O)O)P(=O)(O)O [alendronate, 4-amino-1-hydroxybutylidene-1,1-bisphosphonic acid]
- order of ability to attenuate the stomach's hydrophobic phospholipid barrier property (FIG. 5) (gastric mucosa [3]; rat, in vivo): pamidronate>>alendronate>risedronate
- injurious effect on mucosae of the gastric body and antrum [1]: dose-dependent injurious effect
- volunteers who developed one or more gastric ulcers [5]: 10-20%
- volunteers with observable gastric erosions [5]: 40-60%
- rate of healing of aspirin-induced gastric erosions [6]: significantly retarded
- healing of experimentally induced gastric ulcers [7]: significantly delayed the healing

Compound: NCCC(O)(P(=O)(O)O)P(=O)(O)O [Pamidronate, 3-amino-1-hydroxypropylidene-1,1-bisphosphonic acid]
- gastric lesions (antrum lesion score, FIG. 2) (gastric mucosa [2]; rat stomach, over a 4 hr period, in combination with indomethacin): induced lesions in both the antrum and body of the rat stomach
- order of gastrotoxicity (FIG. 4) (gastric mucosa [2]): pamidronate>>alendronate>risedronate
- Gastric Lesion Score (lesioned area, mm^2) (gastric mucosa [2]): 62 ± 11* mm^2
- irritation of the gastric mucosa (comparison of bisphosphonates) (gastric mucosa [8]): more irritating

Compound: COc1ccc2c(c1)c(CC(=O)O)c(C)n2C(=O)c1ccc(Cl)cc1 [Indomethacin]
- Gastric Lesion Score (lesioned area, mm^2) (gastric mucosa [2]): 0 ± 0 mm^2
